Earlier results in patent US20230066280A1, “DRUG ELUTING BIOMATERIALS” (UCL BUSINESS LTD, priority 2020, published 2023).

What was measured:
Rho = details: SY5YAPP, HEK 293 and PC12 cells (ref 30)

Row | Structure (SMILES) | initial loaded drug released within 24 hours (ibuprofen from EVA, previous study (ref 24)) | release rate of ibuprofen from MSN (mesoporous silica nanoparticles, previous studies (ref 20)) | levels of active Rho-GTP (Rho)
1 | CC(C)Cc1ccc(C(C)C(=O)O)cc1 (stereo not drawn) [ibuprofen] | 50% | 96.3% | 
2 | CSc1ccc(/C=C2/C(C)=C(CC(=O)O)c3cc(F)ccc32)cc1 [sulindac sulfide] |  |  | reduced
